molecular target: T1, recombinant human 5-HT5A receptor (Homo sapiens, UniProt P47898); test: [3H]LSD radioligand binding assay, membranes of HEK-EBNA cells transiently expressing 5-HT5A receptors; details: [3H]LSD approx. 1 nM, SPA beads, 120 min at room temperature; Ki from IC50 by Cheng-Prussoff equation
T1 construct: expressed in transfected cells; host or cells: HEK-EBNA (Human Embryonic Kidney-EBNA) cells, transient cDNA expression, membranes
Method: A [^3H]LSD radioligand binding assay was used to determine the affinity of the compounds for the recombinant human 5-HT5A receptor, in membranes from transiently (cDNA) expressed 5-HT5A receptors in Human Embryonic Kidney-EBNA (HEK-EBNA) cells. Assay buffer consisted of Tris (50 mM) buffer containing 1 mM EGTA, 10 mM MgCl2 (pH 7.4) and 10 μM pargyline. The binding assay was carried out in 96-well-plates in the presence of [^3H]LSD (approximately 1 nM), approximately 2 μg/well of membrane protein, and 0.5 mg of Ysi-poly-1-lysine SPA beads in a final volume of 200 μl of buffer. Non-specific binding was defined using methiothepin 2 μM. Compounds were tested at 10 concentrations. All assays were conducted in duplicate and repeated at least two times. Assay plates were incubated for 120 min at room temperature before centrifugation. Bound ligand was determined using a Packard Topcount scintillation counter. IC50 values were calculated using a non-linear curve fitting program and Ki values calculated using the Cheng-Prussoff equation.

T1 sequence (P47898 whole entry): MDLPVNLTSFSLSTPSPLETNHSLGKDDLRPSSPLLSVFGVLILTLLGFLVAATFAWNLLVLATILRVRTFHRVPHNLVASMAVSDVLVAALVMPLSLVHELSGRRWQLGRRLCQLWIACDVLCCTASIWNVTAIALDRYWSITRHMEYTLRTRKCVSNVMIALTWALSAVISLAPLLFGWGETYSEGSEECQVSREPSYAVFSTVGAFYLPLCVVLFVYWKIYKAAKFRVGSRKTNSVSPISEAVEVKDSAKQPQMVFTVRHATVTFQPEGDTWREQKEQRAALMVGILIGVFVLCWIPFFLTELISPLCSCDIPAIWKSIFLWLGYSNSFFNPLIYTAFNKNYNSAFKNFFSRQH

| Structure (SMILES) | Ki |
| --- | --- |
| Fc1cc(F)cc(CNc2cccc3nc(NC4COc5ccccc54)ccc23)c1 (racemic) [Example 17, rac-N5-(3,5-Difluoro-benzyl)-N2-(2,3-dihydro-benzofuran-3-yl)-quinoline-2,5-diamine] | 9.24 nM |
| c1cncc(CNc2cccc3nc(NC4COc5ccccc54)ccc23)c1 (racemic) [Example 18, rac-N2-(2,3-Dihydro-benzofuran-3-yl)-N5-pyridin-3-ylmethyl-quinoline-2,5-diamine] | 22.1 nM |
| COc1ccc2c(c1)C(Nc1ccc3c(NCc4cccnc4)cccc3n1)CC2 (racemic) [Example 23, rac-N2-(6-Methoxy-indan-1-yl)-N5-pyridin-3-ylmethyl-quinoline-2,5-diamine] | 23.5 nM |
| COc1ccc2c(c1)C(Nc1ccc3c(NCc4cc(F)cc(F)c4)cccc3n1)CC2 (racemic) [Example 29, rac-N5-(3,5-Difluoro-benzyl)-N2-(6-methoxy-indan-1-yl)-quinoline-2,5-diamine] | 9.72 nM |
| COc1cccc2c1C(Nc1ccc3c(NCc4cccc5[nH]ccc45)cccc3n1)CC2 (racemic) [Example 57, rac-N5-(1H-Indol-4-ylmethyl)-N2-(7-methoxy-indan-1-yl)-quinoline-2,5-diamine] | 3.7 nM |
| O=S(=O)(Nc1cccc2nc(NC3CC4CCC3C4)ccc12)c1ccc(F)cc1 (racemic) [Example 60, rac-exo-N-[2-(Bicyclo[2.2.1]hept-2-ylamino)-quinolin-5-yl]-4-fluoro-benzenesulfonamide] | 197 nM |
| COc1cccc2c1C(Nc1ccc3c(NS(=O)(=O)c4cccc5c4ccn5C)cccc3n1)CC2 (racemic) [Example 61, rac-1-Methyl-1H-indole-4-sulfonic acid [2-(7-methoxy-indan-1-ylamino)-quinolin-5-yl]-amide] | 4.66 nM |
| COc1cccc2c1C(Nc1ccc3c(NCc4cnc[nH]4)cccc3n1)CCC2 (racemic) [Example 67, Rac-N5-(3H-Imidazol-4-ylmethyl)-N2-(8-methoxy-1,2,3,4-tetrahydro-naphthalen-1-yl)-quinoline-2,5-diamine] | 10.5 nM |
| COc1cccc2c1C(Nc1ccc3c(NCc4c[nH]nn4)cccc3n1)CCC2 (racemic) [Example 68, Rac-N2-(8-Methoxy-1,2,3,4-tetrahydro-naphthalen-1-yl)-N5-(1H-[1,2,3]triazol-4-ylmethyl)-quinoline-2,5-diamine] | 15.3 nM |
| COc1cccc2c1C(Nc1ccc3c(NCc4cccc5[nH]ccc45)cccc3n1)CCC2 (racemic) [Example 70, Rac-N5-(1H-Indol-4-ylmethyl)-N2-(8-methoxy-1,2,3,4-tetrahydro-naphthalen-1-yl)-quinoline-2,5-diamine] | 15.9 nM |
| c1cncc(CNc2cccc3nc(NC4COc5ccccc54)ccc23)c1 (single isomer, unassigned; (+)) [Example 27, (+)-N2-2,3-Dihydro-benzofuran-3-yl-N5-pyridin-3-ylmethyl-quinoline-2,5-diamine] | 25.8 nM |
| COc1ccc2c(c1)C(Nc1ccc3c(NCc4cccc(S(C)(=O)=O)c4)cccc3n1)CC2 (single isomer, unassigned; (+)) [Example 30, (+)-N5-(3-Methanesulfonyl-benzyl)-N2-(6-methoxy-indan-1-yl)-quinoline-2,5-diamine] | 19 nM |
| Fc1cc(F)cc(CNc2cccc3nc(NC4COc5ccccc54)ccc23)c1 (single isomer, unassigned; (+)) [Example 32, (+)-N5-(3,5-Difluoro-benzyl)-2,3-dihydro-benzofuran-3-yl-quinoline-2,5-diamine] | 12.7 nM |
| COc1ccc2c(c1)C(Nc1ccc3c(NCc4cc(F)cc(F)c4)cccc3n1)CC2 (single isomer, unassigned; (+)) [Example 35, (+)-N5-(3,5-Difluoro-benzyl)-N2-(6-methoxy-indan-1-yl)-quinoline-2,5-diamine] | 7.81 nM |
| COc1ccc2c(c1)C(Nc1ccc3c(NCc4cccnc4)cccc3n1)CC2 (single isomer, unassigned; (+)) [Example 37, (+)-N2-(6-Methoxy-indan-1-yl)-N5-pyridin-3-ylmethyl-quinoline-2,5-diamine] | 17.8 nM |
| c1cncc(COc2cccc3nc(N[C@@H]4CCc5ccccc54)ccc23)c1 [Example 4, (R)-Indan-1-yl-[5-(pyridin-3-ylmethoxy)-quinolin-2-yl]-amine] | 37.3 nM |
| Fc1ccc(Oc2cccc3nc(N[C@@H]4CCc5ccccc54)ccc23)cc1 [Example 9, [5-(4-Fluoro-phenoxy)-quinolin-2-yl]-(R)-indan-1-yl-amine] | 90.9 nM |

The next lines start with the values.

| Ki | Structure (SMILES) |
| --- | --- |
| 7.18 nM | COc1cccc2c1C(Nc1ccc3c(NS(=O)(=O)c4cc(F)c(F)c(F)c4)cccc3n1)CC2 (racemic) [Example 19, rac-3,4,5-Trifluoro-N-[2-(7-methoxy-indan-1-ylamino)-quinolin-5-yl]-benzenesulfonamide] |
| 15.8 nM | COc1ccc2c(c1)C(Nc1ccc3c(NS(=O)(=O)c4ccc(F)cc4)cccc3n1)CC2 (racemic) [Example 21, rac-4-Fluoro-N-[2-(6-methoxy-indan-1-ylamino)-quinolin-5-yl]-benzenesulfonamide] |
| 4.23 nM | COc1cccc2c1C(Nc1ccc3c(NS(=O)(=O)c4ccc(F)cc4)cccc3n1)CC2 (racemic) [Example 28, rac-4-Fluoro-N-[2-(7-methoxy-indan-1-ylamino)-quinolin-5-yl]-benzenesulfonamide] |
| 13.4 nM | COc1cccc2c1C(Nc1ccc3c(NS(=O)(=O)c4cc(F)cc(F)c4)cccc3n1)CCC2 (racemic) [Example 59, rac 3,5-Difluoro-N-[2-(8-methoxy-1,2,3,4-tetrahydro-naphthalen-1-ylamino)-quinolin-5-yl]-benzenesulfonamide] |
| 60.7 nM | O=S(=O)(Nc1cccc2nc(NC3CCCc4ccccc43)ccc12)c1cc(F)cc(F)c1 (racemic) [Example 62, rac-3,5-Difluoro-N-[2-(1,2,3,4-tetrahydro-naphthalen-1-ylamino)-quinolin-5-yl]-benzenesulfonamide] |
| 18.1 nM | COc1ccc2c(c1)C(Nc1ccc3c(NS(=O)(=O)c4cc(F)c(F)c(F)c4)cccc3n1)CC2 (single isomer, unassigned; (+)) [Example 20, (+)-3,4,5-Trifluoro-N-[2-(6-methoxy-indan-1-ylamino)-quinolin-5-yl]-benzenesulfonamide] |
| 12 nM | COc1ccc2c(c1)C(Nc1ccc3c(NS(=O)(=O)c4ccc(F)cc4)cccc3n1)CC2 (single isomer, unassigned; (+)) [Example 33, (+)-4-Fluoro-N-[2-(6-methoxy-indan-1-ylamino)-quinolin-5-yl]-benzenesulfonamide] |
| 22.9 nM | O=S(=O)(Nc1cccc2nc(NC3COc4ccccc43)ccc12)c1cc(F)cc(F)c1 (single isomer, unassigned; (+)) [Example 41, (+)-N-{2-[(2,3-Dihydro-benzofuran-3-yl)amino]-quinolin-5-yl}-3,5-difluoro-benzenesulfonamide] |
| 3.76 nM | O=S(=O)(Nc1cccc2nc(N[C@@H]3CCc4ccccc43)ccc12)c1ccc(F)cc1 [Example 1, 4-Fluoro-N-[2-((R)-indan-1-ylamino)-quinolin-5-yl]-benzenesulfonamide] |
| 3.62 nM | O=S(=O)(Nc1cccc2nc(N[C@@H]3CCc4ccccc43)ccc12)c1ccc(Cl)s1 [Example 5, 5-Chloro-thiophene-2-sulfonic acid [2-((R)-indan-1-ylamino)-quinolin-5-yl]-amide] |
| 1.85 nM | Fc1cc(F)cc(CNc2cccc3nc(N[C@@H]4CCc5ccccc54)ccc23)c1 [Example 6, N5-(3,5-Difluoro-benzyl)-N2-(R)-indan-1-yl-quinoline-2,5-diamine] |
| 2.84 nM | Clc1ccc(Nc2cccc3nc(N[C@@H]4CCc5ccccc54)ccc23)cc1 [Example 7, N5-(4-Chloro-phenyl)-N2-(R)-indan-1-yl-quinoline-2,5-diamine] |
| 13.5 nM | CN(c1cccc2nc(N[C@@H]3CCc4ccccc43)ccc12)S(=O)(=O)c1ccc(F)cc1 [Example 8, 4-Fluoro-N-[2-((R)-indan-1-ylamino)-quinolin-5-yl]-N-methyl-benzenesulfonamide] |
| 5.86 nM | O=S(=O)(Nc1cccc2nc(N[C@@H]3CCc4ccccc43)ccc12)c1cc(F)cc(F)c1 [Example 11, 3,5-Difluoro-N-[2-((R)-indan-1-ylamino)-quinolin-5-yl]-benzenesulfonamide] |
| 5.13 nM | c1cncc(CNc2cccc3nc(N[C@@H]4CCc5ccccc54)ccc23)c1 [Example 12, N2-(R)-Indan-1-yl-N5-pyridin-3-ylmethyl-quinoline-2,5-diamine] |
| 11.1 nM | O=S(=O)(Nc1cccc2nc(N[C@@H]3CCc4ccccc43)ccc12)c1cc(F)c(F)c(F)c1 [Example 16, 3,4,5-Trifluoro-N-[2-((R)-indan-1-ylamino)-quinolin-5-yl]-benzenesulfonamide] |
| 4.57 nM | COc1cccc2c1C(Nc1ccc3c(NS(=O)(=O)c4cc(F)cc(F)c4)cccc3n1)CC2 (stereo not drawn) [Example 39, 3,5-Difluoro-N-[2-(7-methoxy-indan-1-ylamino)-quinolin-5-yl]-benzenesulfonamide] |
| 6.45 nM | c1ccc2c(c1)CC[C@H]2Nc1ccc2c(NCc3cnc[nH]3)cccc2n1 [Example 43, N5-(3H-Imidazol-4-ylmethyl)-N2-(R)-indan-1-yl-quinoline-2,5-diamine] |
| 97.7 nM | O=C(Nc1cccc2nc(N[C@@H]3CCc4ccccc43)ccc12)c1cc(F)cc(F)c1 [Example 45, 3,5-Difluoro-N-[2-((R)-indan-1-ylamino)-quinolin-5-yl]-benzamide] |

Reference: patent US7923561B2 (Hoffmann-La Roche Inc., priority 2006, dated 2011)
